Data: PubChem BioAssay AID652101 (NMMLSC, 2013)

Tested on: TALL-104 lytic granule exocytosis, LAMP-1 flow cytometry
Experiment: potency against LAMP-1 externalization in TALL-104 – TALL-104 cells, flow cytometry, CherryPick01, dose response (AID 652101)
Settings: stimulated with 1 µM thapsigargin, 50 nM PMA;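 active = at least 15% inhibition at the top concentration together with an EC50 under 10 microM; inactive = the rest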

EC50, active:
COc1cccc(-c2cnc3c(NC(C)=O)cc(-c4ccsc4)cn23)c1 4.98 µM
COc1cccc(-c2cnc3c(NC(C)=O)cc(-c4ccccc4OC)cn23)c1 5.23 µM
O=S(=O)(c1ccccc1)c1nnn2c1nc(NC1CCN(Cc3ccccc3)CC1)c1cc(Cl)ccc12 4.22 µM
COc1ccccc1CNc1nc(NCc2ccc(C(C)C)cc2)c2sccc2n1 5.34 µM
CCOc1ccc2nc(C)cc(Nc3cccc([N+](=O)[O-])c3)c2c1 6.14 µM
O=C(CN1C(=O)/C(=C\c2cccc(Br)c2)Oc2ccccc21)NCCCN1CCOCC1 4.61 µM
O=C(Nc1ccc(F)cc1)c1nc(S(=O)(=O)Cc2ccccc2)ncc1Cl 0.344 µM
CCCCn1c(=N)n(CC(=O)c2ccc(Br)s2)c2ccccc21 3.99 µM
c1ccc(CNc2nc(NCC3CC3)nc3cc(-c4ccccc4)sc23)cc1 2.22 µM
CC1=C(C)CS(=O)N(S(=O)(=O)c2ccc(Cl)cc2)C1 (stereo not given) 2.88 µM
